Reference: patent publication US6777415B2, “Methods of inducing cancer cell death and tumor regression” (priority 2000, dated 2004)

What was measured:
[1] = tested on: human tumor cell lines as xenografts; conditions: immuno-compromised mice (Liu et al., 1998); cited from earlier work
[2] = tested on: human tumor cell lines; conditions: variety of human tumor cell lines, in vitro (Liu et al., 1998); cited from earlier work
[3] = tested on: MAPK pathway; assay: Time course of MAPK pathway inhibition after treatment; type: cell-based
Text: (2) A “Ras signaling pathyway inhibitor” is defined herein as an agent that blocks the activity of any protein in the signal transduction pathway shown in FIG. 1. A particularly preferred Ras signaling pathway inhibitor is a “MEK inhibitor”, which is defined herein as an agent that blocks the in vitro enzyme activity of a MEK (MAPK/ERK kinase) protein (preferably inhibiting MEK1 and MEK2), and thus blocks the activation of a MAPK protein as evidenced by a block in the phosphorylation of the MAPK protein. This can be detected by western blot analysis for phosphorylated MAPK as described in, e.g., Dudley et al., Proc Natl Acad Sci. 92:7686-7689 (1995), and Favata et al., J Bio Chem. 273:18623-32(1998).
“Sustained effect” is defined herein as a prolonged/enhanced apoptotic response to combination treatment with a FPT I and a MEK1,2 inhibitor in comparison to single treatment alone. The consequences of a “sustained effect” can be monitored either by measurement of MAPK activity or cell death or apoptosis, as described in previously. The effective time course for inhibition of MAPK pathway by the individual drugs is dose dependent. […] (See, e.g., FIG. 6.

[4] = tested on: MEK; conditions: Favata et al., 1998; cited from earlier work
[5] = tested on: Ras-transformed cells; conditions: Ras-transformed cells (Alessi et al., 1995); cited from earlier work

## NC(=O)N1CCC(CC(=O)N2CCC(C3c4ncc(Br)cc4CCc4cc(Cl)cc(Br)c43)CC2)CC1 (stereo not drawn) [SCH 66336]
[1]
  inhibition of growth as xenografts: inhibition
[2]
  inhibition of anchorage-independent growth: inhibition of anchorage-independent growth
[3]
  duration of the MAPK inhibitory effect after treatment: ≤ 72 h
[3]; dose dependent
  time of optimal MAPK pathway inhibition after treatment: 12 to 18 h

## N#CC(=C(/N)Sc1ccccc1N)/C(C#N)=C(\N)Sc1ccccc1N [U0126]
[4]
  affinity of binding to MEK relative to PD098059: higher affinity than PD098059

## COc1cccc(-c2cc(=O)c3ccccc3o2)c1N [PD098059]
[5]
  effect on growth factor-mediated proliferation and anchorage-independent growth: blocks
